The subject of the experiment is BDF1 mice, P388 leukemia ip, median survival T/C. Description: NCI In Vivo Anticancer Drug Screen. Data for tumor model P388 Leukemia (intraperitoneal) in B6D2F1 (BDF1) mice. The following applies: endpoint: median survival time, higher = longer survival. An outline of the steps:
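Antitumour effect was judged in vivo: survival in drug-treated mice, normalised to that of vehicle-dosed controls, gives the reported T/C.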

The mark [1] stands for this setting: dose: 50.0 mg/kg/injection, schedule: Q04DX003 (ip), vehicle: saline.
The mark [2] stands for this setting: dose: 100.0 mg/kg/injection, schedule: Q04DX003 (ip), vehicle: saline.
Where [3] appears, read: dose: 200.0 mg/kg/injection, schedule: Q04DX003 (ip), vehicle: saline.
[4] abbreviates: dose: 400.0 mg/kg/injection, schedule: Q04DX003 (ip), vehicle: saline.
The mark [5] stands for this setting: dose: 12.5 mg/kg/injection, schedule: Q01DX009 (ip), vehicle: water.
Setting [6] is: dose: 25.0 mg/kg/injection, schedule: Q01DX009 (ip), vehicle: water.
Setting [7] is: dose: 25.0 mg/kg/injection, schedule: Q04DX003 (ip), vehicle: water.
Where [8] appears, read: dose: 50.0 mg/kg/injection, schedule: Q01DX009 (ip), vehicle: water.
[9] abbreviates: dose: 50.0 mg/kg/injection, schedule: Q04DX003 (ip), vehicle: water.
[10] abbreviates: dose: 100.0 mg/kg/injection, schedule: Q01DX009 (ip), vehicle: water.
Setting [11] is: dose: 200.0 mg/kg/injection, schedule: Q04DX003 (ip), vehicle: water.
Setting [12] is: dose: 100.0 mg/kg/injection, schedule: Q01DX001 (ip), vehicle: saline.
The mark [13] stands for this setting: dose: 200.0 mg/kg/injection, schedule: Q01DX001 (ip), vehicle: saline.
The mark [14] stands for this setting: dose: 400.0 mg/kg/injection, schedule: Q01DX001 (ip), vehicle: saline.

Where “and” joins values, the source holds several entries; their conditions need not be identical. Identical values can stand only once. Toxic doses and inconclusive results are not listed.

On to `C=CS(=O)(=O)c1ccccc1`, for which the T/C (dose: 18.0 mg/kg/injection, schedule: Q01DX009 (ip), vehicle: saline with Tween-80) was 114 % of control; the T/C (dose: 18.0 mg/kg/injection, schedule: Q04DX003 (ip), vehicle: saline with Tween-80) was 90 % of control; the T/C (dose: 24.0 mg/kg/injection, schedule: Q01DX009 (ip), vehicle: saline with Tween-80) is 100 % of control; the T/C (dose: 36.0 mg/kg/injection, schedule: Q01DX009 (ip), vehicle: saline with Tween-80) is 116 % of control; the T/C (dose: 36.0 mg/kg/injection, schedule: Q04DX003 (ip), vehicle: saline with Tween-80) is 100 % of control; the T/C (dose: 72.0 mg/kg/injection, schedule: Q01DX009 (ip), vehicle: saline with Tween-80) is 114 % of control. Where the note is “dose: 72.0 mg/kg/injection, schedule: Q04DX003 (ip), vehicle: saline with Tween-80”, the T/C was 109 % of control.

Turning to `COc1cc(CN2CCCN(Cc3cc(OC)c(OC)c(OC)c3)C2c2ccc(N(CCCl)CCCl)cc2C)cc(OC)c1OC`, the T/C runs as follows: under setting [1], 109 % of control; under setting [2], 104 % of control; under setting [3], 90 % of control; under setting [4], 109 % of control.

As for `Oc1c(Cl)c(Cl)c(Cl)c(Cl)c1Cl` (tested in a mixture with another compound), the T/C (dose: 25.0 mg/kg/injection, schedule: Q01DX009 (ip), vehicle: saline with Tween-80) was 109 % of control.

Consider `Cc1cn(C)c2nccnc12`, for which the T/C was 100 % of control under setting [5]; 102 % of control (dose: 12.5 mg/kg/injection, schedule: Q04DX003 (ip), vehicle: water); 107 % of control under setting [6]; 96 % of control under setting [7]; 98 % of control under setting [8]; 112 % of control under setting [9]. The T/C was 100 % of control under setting [10]; 117 % of control (dose: 100.0 mg/kg/injection, schedule: Q04DX003 (ip), vehicle: water); 104 % of control (dose: 200.0 mg/kg/injection, schedule: Q01DX009 (ip), vehicle: water); 98 % of control under setting [11]; 94 % of control (dose: 300.0 mg/kg/injection, schedule: Q04DX003 (ip), vehicle: water).

With `O`, the T/C reads like this: under setting [12], 95 % of control; under setting [2], 105 % of control; under setting [13], 90 % of control; under setting [3], 95 % of control; under setting [14], 90 % of control; under setting [4], 105 % of control.

With `O=C1C(NCCO)=C(N2CC2)C(=O)C(NCCO)=C1N1CC1`, the T/C was 248 % of control and 93 % of control (dose: 0.18 mg/kg/injection, schedule: Q01DX009 (ip), vehicle: saline); 275 % of control and 203 % of control (dose: 0.37 mg/kg/injection, schedule: Q01DX009 (ip), vehicle: saline); 194 % of control (dose: 0.75 mg/kg/injection, schedule: Q01DX009 (ip), vehicle: saline).

On to `COc1ccc(C2=CC(c3ccc(OC)c(OC)c3)c3c(c4ccccc4oc3=O)O2)cc1OC` (centres undefined), for which the T/C reads like this: under setting [5], 98 % of control; under setting [6], 100 % of control; under setting [7], 97 % of control; under setting [8], 97 % of control; under setting [9], 94 % of control; under setting [10], 96 % of control and 97 % of control. Besides, the T/C under setting [11] was 97 % of control; the T/C (dose: 400.0 mg/kg/injection, schedule: Q01DX009 (ip), vehicle: water) is 106 % of control; the T/C (dose: 400.0 mg/kg/injection, schedule: Q04DX003 (ip), vehicle: water) was 97 % of control.

With `CC(C)Oc1ccc(C(=O)NS(=O)(=O)c2ccc(N)cc2)cc1`, the T/C under setting [12] was 113 % of control, the T/C under setting [13] was 104 % of control and the T/C under setting [14] was 100 % of control.

As to `Nc1nc(-c2ccccc2)ns1`, the T/C by setting is: (dose: 25.0 mg/kg/injection, schedule: Q01DX009 (ip), vehicle: saline sonified) 100 % of control; (dose: 50.0 mg/kg/injection, schedule: Q01DX009 (ip), vehicle: saline sonified) 100 % of control.

Turning to `CCOC(=O)CCCc1ccc(N=NN(C)C)cc1`, the T/C (dose: 150.0 mg/kg/injection, schedule: Q04DX003 (ip), vehicle: saline) is 95 % of control.

As for `O=C1Nc2ccc(Br)cc2C1=Nc1cccnc1`, the T/C (dose: 50.0 mg/kg/injection, schedule: Q01DX009 (ip), vehicle: saline with Tween-80) is 100 % of control; the T/C (dose: 100.0 mg/kg/injection, schedule: Q01DX009 (ip), vehicle: saline with Tween-80) was 104 % of control; the T/C (dose: 200.0 mg/kg/injection, schedule: Q01DX009 (ip), vehicle: saline with Tween-80) is 111 % of control; the T/C (dose: 400.0 mg/kg/injection, schedule: Q01DX009 (ip), vehicle: saline with Tween-80) was 111 % of control.

With `C=C1C(=O)C2(C)OC2(C)C1C(=O)O` (centres undefined), the T/C is 98 % of control (dose: 1.25 mg/kg/injection, schedule: Q01DX009 (ip), vehicle: Klucel (hydroxypropylcellulose) (HPC)); 114 % of control (dose: 2.5 mg/kg/injection, schedule: Q01DX009 (ip), vehicle: Klucel (hydroxypropylcellulose) (HPC)); 120 % of control (dose: 5.0 mg/kg/injection, schedule: Q01DX009 (ip), vehicle: Klucel (hydroxypropylcellulose) (HPC)); 109 % of control (dose: 10.0 mg/kg/injection, schedule: Q01DX009 (ip), vehicle: Klucel (hydroxypropylcellulose) (HPC)).

With `O=C1c2ccccc2C(=O)c2c(NCCNCCO)ccc(NCCNCCO)c21`, the T/C was 163 % of control (dose: 2.0 mg/kg/injection, schedule: Q01DX009 (ip), vehicle: water); 262 % of control and 403 % of control and 239 % of control (dose: 3.12 mg/kg/injection, schedule: Q01DX009 (ip), vehicle: saline); 111 % of control (dose: 4.0 mg/kg/injection, schedule: Q01DX009 (ip), vehicle: water); 154 % of control (dose: 4.0 mg/kg/injection, schedule: Q04DX003 (ip), vehicle: saline with Tween-80); 502 % of control and 202 % of control and 189 % of control (dose: 6.25 mg/kg/injection, schedule: Q01DX009 (ip), vehicle: saline); 96 % of control (dose: 8.0 mg/kg/injection, schedule: Q01DX009 (ip), vehicle: water). In addition, the T/C was 165 % of control (dose: 8.0 mg/kg/injection, schedule: Q04DX003 (ip), vehicle: saline with Tween-80); 503 % of control and 517 % of control (dose: 12.5 mg/kg/injection, schedule: Q01DX009 (ip), vehicle: saline); 222 % of control (dose: 13.0 mg/kg/injection, schedule: Q04DX003 (ip), vehicle: saline + alcohol); 165 % of control (dose: 16.0 mg/kg/injection, schedule: Q04DX003 (ip), vehicle: saline with Tween-80); 321 % of control (dose: 21.6 mg/kg/injection, schedule: Q04DX003 (ip), vehicle: saline + alcohol); 517 % of control (dose: 25.0 mg/kg/injection, schedule: Q01DX009 (ip), vehicle: saline). Besides, the T/C runs as follows: (dose: 32.0 mg/kg/injection, schedule: Q04DX003 (ip), vehicle: saline with Tween-80) 192 % of control; (dose: 36.0 mg/kg/injection, schedule: Q04DX003 (ip), vehicle: saline + alcohol) 311 % of control; (dose: 50.0 mg/kg/injection, schedule: Q01DX009 (ip), vehicle: saline) 74 % of control; (dose: 60.0 mg/kg/injection, schedule: Q04DX003 (ip), vehicle: saline + alcohol) 201 % of control; (dose: 64.0 mg/kg/injection, schedule: Q04DX003 (ip), vehicle: saline with Tween-80) 274 % of control.

As to `COc1ccc(C[C@H](N)C(=O)NC2C(CO)OC(n3cnc4c(N(C)C)ncnc43)C2O)cc1` (some centres undefined), the T/C by setting is: (dose: 25.0 mg/kg/injection, schedule: Q04DX003 (ip), vehicle: saline) 98 % of control; under setting [1], 109 % of control; (dose: 100.0 mg/kg/injection, schedule: Q01DX009 (ip), vehicle: saline) 100 % of control; under setting [2], 105 % of control.

`Oc1c(-c2ccccc2)cc(-[n+]2c(-c3ccccc3)cc(-c3ccc(-c4ccccc4)cc3)cc2-c2ccccc2)cc1-c1ccccc1`: the T/C was 107 % of control (dose: 25.0 mg/kg/injection, schedule: Q01DX001 (ip), vehicle: saline with Tween-80); 98 % of control (dose: 50.0 mg/kg/injection, schedule: Q01DX001 (ip), vehicle: saline with Tween-80); 102 % of control (dose: 100.0 mg/kg/injection, schedule: Q01DX001 (ip), vehicle: saline with Tween-80).
